Data on one compound can be found in paper PMC6934184, “Selective DNA-PKcs inhibition extends the therapeutic index of localized radiotherapy and chemotherapy” (The Journal of Clinical Investigation, 2019).

The target of this test is T1, ULK3 (Homo sapiens, UniProt Q6PHR2).
T1 construct: purchased Thermo Fisher Scientific (Life Technologies) SelectScreen
The test can be described thus: SelectScreen LanthaScreen. The note with it: 1 µM. The test is classed as binding. The protocol:
The in vitro kinase selectivity of NU5455 was determined using the SelectScreen Broad Assay Panel (Thermo Fisher Scientific) involving activity and binding assays (Supplemental Table 1). […] Class IA PI3Ks were measured using the p85α subunit.
Kinase [ATP] % Assay Kinase [ATP] % Assay Kinase [ATP] % Assay Kinase [ATP] % Assay
DNA-PK Km app 98.3 Z LATS2 n/a 4.7 L KIT D820E n/a 1.3 L GSK3B (GSK3 beta) Km app -2.5 Z
PIK3C3 (hVPS34) Km app 85.9 A PRKCZ (PKC zeta) Km app 4.7 Z GRK1 n/a 1.3 L BMPR2 n/a -2.5 L
PIK3C2B (PI3K-C2 beta) 10 28.9 A FGFR1 Km app 4.7 Z BRSK2 n/a 1.2 L CDC42 BPB (MRCKB) Km app -2.5 Z
SNF1LK2 Km app 26.6 Z MINK1 Km app 4.6 Z NUAK1 (ARK5) Km app 1.2 A AMPK (A2/B2/G2) n/a -2.6 L
HCK Km app 18.0 Z CSF1R (FMS) Km app 4.3 Z CDK9/cyclin K n/a 1.0 L PRKG1 Km app -2.7 Z
NEK2 Km app 17.8 Z CSNK1G3 (CK1 gamma 3) Km app 4.2 Z NUAK2 n/a 1.0 L KIT T670E n/a -2.8 L
ALK Km app 17.3 Z STK32C (YANK3) n/a 4.2 L CDK2/cyclin O n/a 0.9 L ERBB4 (HER4) Km app -2.8 Z
FGFR3 K650M n/a 16.5 L STK22D (TSSK1) Km app 4.2 Z CAMKK2 (CaMKK beta) n/a 0.9 L PLK4 n/a -2.8 L
SIK3 n/a 16.1 L TAOK3 (JIK) n/a 4.2 L FGFR3 Km app 0.9 Z GRK7 Km app -3.0 Z
LYN A Km app 15.2 Z RPS6KA4 (MSK2) Km app 4.2 Z ULK2 n/a 0.9 L MAPKAPK2 Km app -3.1 Z
BMPR1B (ALK6) n/a 14.5 L PTK2B (FAK2) Km app 4.2 Z KIT D816V n/a 0.9 L FGFR4 Km app -3.1 Z
INSRR (IRR) Km app 14.1 Z CLK2 Km app 4.1 Z CAMK1 (CaMK1) 10 0.8 A CASK n/a -3.1 L
PLK2 Km app 14.1 Z STK24 (MST3) Km app 4.1 Z PTK6 (Brk) Km app 0.7 Z GRK5 Km app -3.2 Z
PRKACA (PKA) Km app 14.0 Z CAMK1D (CaMKI delta) Km app 4.1 Z CAMK2B (CaMKII beta) Km app 0.7 Z EGFR (ErbB1) T790M Km app -3.3 Z
EIF2AK2 (PKR) n/a 13.3 L INSR Km app 4.1 Z ACVR1 (ALK2) n/a 0.7 L PAK4 Km app -3.3 Z
PRKX Km app 12.5 Z IRAK1 Km app 4.0 A ABL1 H396P n/a 0.6 L DAPK3 (ZIPK) Km app -3.4 Z
FGR Km app 12.1 Z SRC N1 Km app 3.9 Z MERTK (cMER) A708S n/a 0.6 L RET M918T n/a -3.5 L
CLK1 Km app 11.7 Z SRPK2 Km app 3.9 Z MAPKAPK5 (PRAK) Km app 0.6 Z PRKCQ (PKC theta) Km app -3.7 Z
MARK3 Km app 11.4 Z RPS6KA6 (RSK4) Km app 3.8 Z AKT1 (PKB alpha) Km app 0.5 Z CAMKK1 (CAMKKA) n/a -3.8 L
PDGFRB (PDGFR beta) Km app 11.0 Z GRK6 Km app 3.7 Z NTRK3 (TRKC) Km app 0.4 Z FLT3 D835Y Km app -3.9 Z
PRKCN (PKD3) Km app 10.7 Z PKN1 (PRK1) Km app 3.6 Z ZAP70 Km app 0.3 Z ROCK2 Km app -4.1 Z
STK16 (PKL12) n/a 10.5 L MAP3K8 (COT) 100 3.5 Z CSNK1A1 (CK1 alpha 1) Km app 0.3 Z CHUK (IKK alpha) Km app -4.2 A
FES (FPS) Km app 10.4 Z FLT4 (VEGFR3) Km app 3.5 Z MYLK (MLCK) n/a 0.2 L AXL Km app -4.2 Z
ABL1 Km app 10.4 Z GRK4 Km app 3.5 Z MKNK2 (MNK2) n/a 0.2 L PIM2 Km app -4.3 Z
MUSK Km app 10.3 Z FRK (PTK5) Km app 3.4 Z AMPK (A1/B1/G3) n/a 0.2 L PAK1 Km app -4.4 Z
MAPK1 (ERK2) Km app 10.1 Z FYN A n/a 3.3 L MAP3K2 (MEKK2) n/a 0.1 L BMPR1A (ALK3) n/a -4.4 L
BRAF 100 9.9 Z CDK1/cyclin A2 n/a 3.3 L CDK8/cyclin C n/a 0.1 L STK4 (MST1) Km app -4.4 Z
IGF1R Km app 9.7 Z KIT V559D T670I n/a 3.1 L MARK2 Km app 0.1 Z PRKCH (PKC eta) Km app -4.6 Z
MAPK14 (p38 alpha) Km app 9.7 Z SPHK2 10 3.1 A ICK n/a 0.0 L SGKL (SGK3) Km app -4.6 Z
LCK Km app 9.6 Z FGFR3 G697C n/a 3.1 L FGFR2 Km app 0.0 Z PI4KB (PI4K beta) Km app -4.7 A
MAPK11 (p38 beta) Km app 9.5 Z RIPK2 n/a 3.1 L AKT2 (PKB beta) Km app 0.0 Z PRKCE (PKC epsilon) Km app -4.9 Z
SRC Km app 9.5 Z PAK6 Km app 3.0 Z EPHB2 Km app -0.1 Z PHKG1 Km app -5.0 Z
CHEK1 (CHK1) Km app 9.3 Z LYN B Km app 3.0 Z TGFBR2 n/a -0.1 L PDGFRA D842V Km app -5.0 Z
CAMK2D (CaMKII delta) Km app 9.3 Z DAPK2 n/a 2.9 L TEK (Tie2) Km app -0.1 Z PRKG2 (PKG2) Km app -5.1 Z
PLK1 Km app 9.2 Z EPHA4 Km app 2.9 Z AURKA (Aurora A) Km app -0.1 Z TYRO3 (RSE) Km app -5.1 Z
RET Y791F Km app 9.2 Z PIK3CG (p110 gamma) Km app 2.9 A KIT D816H n/a -0.2 L TAOK2 (TAO1) Km app -5.1 Z
FLT3 Km app 9.1 Z HIPK1 (Myak) Km app 2.8 Z KIT N822K n/a -0.2 L EPHB4 Km app -5.3 Z
MAPK10 (JNK3) 100 9.0 Z ADRBK2 (GRK3) Km app 2.8 Z PRKACG (PRKAC gamma) n/a -0.2 L AURKC (Aurora C) Km app -5.4 Z
CSNK2A2 (CK2 alpha 2) Km app 8.7 Z STK17B (DRAK2) n/a 2.7 L TEK (TIE2) Y1108F n/a -0.3 L JAK1 Km app -5.7 Z […]

T1 sequence (Q6PHR2 whole entry): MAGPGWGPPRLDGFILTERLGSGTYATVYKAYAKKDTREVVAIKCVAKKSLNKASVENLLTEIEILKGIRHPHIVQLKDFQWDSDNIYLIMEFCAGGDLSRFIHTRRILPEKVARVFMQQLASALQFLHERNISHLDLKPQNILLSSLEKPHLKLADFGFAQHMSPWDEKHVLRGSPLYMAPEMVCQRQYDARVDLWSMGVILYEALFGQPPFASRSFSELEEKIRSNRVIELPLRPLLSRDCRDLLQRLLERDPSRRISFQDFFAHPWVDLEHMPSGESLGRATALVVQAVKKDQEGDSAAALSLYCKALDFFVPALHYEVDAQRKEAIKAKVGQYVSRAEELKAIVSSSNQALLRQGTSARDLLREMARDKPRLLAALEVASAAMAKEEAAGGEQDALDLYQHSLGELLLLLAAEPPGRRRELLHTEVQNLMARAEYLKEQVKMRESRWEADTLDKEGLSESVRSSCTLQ

Take `CN(C(=O)CN1CCOCC1)c1ccc2sc3c(-c4cccc5c(=O)cc(N6CC7CCC(C6)O7)oc45)cccc3c2c1` [NU5455]: the “% displacement” value worked out at 4.5%.
